{"source": "PubChem BioAssay AID179", "about": "(DTP/NCI, 2004)", "tested_on": "CEM cells HIV-1 protection, formazan growth assay", "test": "NCI AIDS Antiviral Assay", "details": "for IC50: measured here: growth of uninfected CEM cells", "outline": "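Five concentrations of each compound were applied to infected and uninfected human CEM cells. Protection from HIV-1 was judged from growth measured with a soluble formazan assay.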", "note": "Several values for one entry are separate records, joined by “and”; a condition that tells them apart may be missing. Equal values may be shown once. Activity calls are given as the source filed them.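 Rule for the calls: active = compounds giving half or more protection of infected cells from virus-caused growth loss, again on retest; inactive = the rest.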", "data": [{"smiles": "N#Cc1c(=O)c2cccnc2n2c1[nH]c1ccccc12", "values": [{"measurement": "EC50", "value": "> 200", "unit": "µM"}, {"measurement": "IC50", "value": "> 200", "unit": "µM"}]}, {"smiles": "O=C1OC2c3ccccc3C(=O)C2(c2ccccc2)N1c1ccccc1", "note": "(stereo unspecified)", "values": [{"measurement": "EC50", "value": "> 200", "unit": "µM"}, {"measurement": "IC50", "value": 126, "unit": "µM"}]}, {"smiles": "Cc1nn(-c2ccccc2)c2[nH]c(=S)cnc12", "values": [{"measurement": "EC50", "value": "> 200", "unit": "µM"}, {"measurement": "IC50", "value": 87.1, "unit": "µM"}]}, {"smiles": "CC(=O)NC1CC2Oc3ccc(C)cc3C(C)(O2)C1O", "note": "(stereo unspecified)", "values": [{"measurement": "outcome", "value": "inactive"}]}, {"smiles": "O=c1c(Cl)c(Cl)cnn1-c1ccccc1", "values": [{"measurement": "EC50", "value": "> 126", "unit": "µM"}, {"measurement": "IC50", "value": "0.288 µM and 2.63 µM"}]}, {"smiles": "CC(C)(C)C(=O)OC(N)/C=C/c1ccccc1", "note": "(stereo unspecified)", "values": [{"measurement": "EC50", "value": "> 200", "unit": "µM"}, {"measurement": "IC50", "value": "> 200", "unit": "µM"}]}, {"smiles": "CC(C)Oc1c(-c2c(OC(C)C)c(=O)c2=O)c(=O)c1=O", "values": [{"measurement": "EC50", "value": "> 200", "unit": "µM"}, {"measurement": "IC50", "value": "> 200", "unit": "µM"}]}, {"smiles": "C[C@@]1(O)CC[C@]2(C)C3CCCC3[C@H]12", "note": "(stereo partly specified)", "values": [{"measurement": "outcome", "value": "inactive"}]}, {"smiles": "CCOC(=O)CCNC(=O)c1cc(C)cc2c1Oc1c(cc(C)cc1C(=O)NCCC(=O)OCC)S2", "values": [{"measurement": "EC50", "value": "> 200", "unit": "µM"}, {"measurement": "IC50", "value": 29.5, "unit": "µM"}]}, {"smiles": "c1cnn([B-]2(n3cccn3)n3ccc[n+]3[B-](n3cccn3)(n3cccn3)n3ccc[n+]32)c1", "values": [{"measurement": "EC50", "value": "> 200", "unit": "µM"}, {"measurement": "IC50", "value": "> 200", "unit": "µM"}]}, {"smiles": "OC1(c2ccccc2)c2ccccc2NC2=NCCN21", "note": "(stereo unspecified)", "values": [{"measurement": "EC50", "value": "> 200", "unit": "µM"}, {"measurement": "IC50", "value": 110, "unit": "µM"}]}, {"smiles": "CCOC(=O)c1c(NC(=O)c2ccc(OC)cc2)sc2c1CCCC2", "values": [{"measurement": "EC50", "value": "> 151", "unit": "µM"}, {"measurement": "IC50", "value": "> 151", "unit": "µM"}]}, {"smiles": "O=C1C2=Cc3ccccc3OC2(O)Oc2cc3ccccc3cc21", "note": "(stereo unspecified)", "values": [{"measurement": "EC50", "value": "> 200", "unit": "µM"}, {"measurement": "IC50", "value": 69.2, "unit": "µM"}]}, {"smiles": "O=C(CN1CCC(O)(c2ccccc2)CC1)N1CCN(/C=C/c2ccccc2)CC1", "values": [{"measurement": "EC50", "value": "> 200", "unit": "µM"}, {"measurement": "IC50", "value": 58.9, "unit": "µM"}]}, {"smiles": "CCCCCC=C(c1cc(Br)cc(C(=O)O)c1O)c1cc(Br)cc(C(=O)O)c1O", "values": [{"measurement": "EC50", "value": "> 166", "unit": "µM"}, {"measurement": "IC50", "value": 15.8, "unit": "µM"}]}, {"smiles": "N#CC(/C=C/c1ccccc1)Nc1ccccc1CO", "note": "(stereo unspecified)", "values": [{"measurement": "EC50", "value": "> 27.5", "unit": "µM"}, {"measurement": "IC50", "value": "> 27.5", "unit": "µM"}]}, {"smiles": "Fc1ccc(OCc2nc3cc(C(F)(F)F)ccc3nc2-c2ccccc2)cc1", "values": [{"measurement": "EC50", "value": "> 200", "unit": "µM"}, {"measurement": "IC50", "value": 138, "unit": "µM"}]}, {"smiles": "CCOC(=O)O/C(=C\\c1ccc(OC)cc1)c1c(OC(=O)OCC)n(C(=O)OCC)c2ccccc12", "values": [{"measurement": "EC50", "value": "> 200", "unit": "µM"}, {"measurement": "IC50", "value": 6.61, "unit": "µM"}]}, {"smiles": "CCOC(=O)C(Cl)(NC(=O)c1c(F)c(F)c(F)c(F)c1F)C(F)(F)F", "note": "(stereo unspecified)", "values": [{"measurement": "outcome", "value": "inactive"}]}, {"smiles": "CCc1ccc2oc(-c3cc(O)c(-c4nc5cc(CC)ccc5o4)cc3O)nc2c1", "values": [{"measurement": "EC50", "value": "> 200", "unit": "µM"}, {"measurement": "IC50", "value": "> 200", "unit": "µM"}]}, {"smiles": "Cc1cccc2[s+]snc12", "values": [{"measurement": "EC50", "value": "> 245", "unit": "µM"}, {"measurement": "IC50", "value": 75.9, "unit": "µM"}]}, {"smiles": "S=P(c1ccccc1)(N1CCCCC1)N1CCCCC1", "values": [{"measurement": "EC50", "value": "> 43.7", "unit": "µM"}, {"measurement": "IC50", "value": "> 43.7", "unit": "µM"}]}, {"smiles": "O=C(NC1=NCC(CN2CCN(c3ccccc3)CC2)O1)Nc1ccccc1", "note": "(stereo unspecified)", "values": [{"measurement": "EC50", "value": "> 200", "unit": "µM"}, {"measurement": "IC50", "value": 155, "unit": "µM"}]}, {"smiles": "O=c1[nH]c2ncccc2c(=O)n1O", "values": [{"measurement": "EC50", "value": "> 200", "unit": "µM"}, {"measurement": "IC50", "value": 34.7, "unit": "µM"}]}, {"smiles": "CN1c2c(C(=O)Nc3nccs3)nn(-c3ccccc3)c2-c2ccccc2S1(=O)=O", "values": [{"measurement": "EC50", "value": "> 22.9", "unit": "µM"}, {"measurement": "IC50", "value": "> 22.9", "unit": "µM"}]}, {"smiles": "O=C1C2=C(c3ccccc31)C(c1ccc([N+](=O)[O-])cc1)NC(=S)N2", "note": "(stereo unspecified)", "values": [{"measurement": "EC50", "value": "> 138", "unit": "µM"}, {"measurement": "IC50", "value": 28.2, "unit": "µM"}]}, {"smiles": "Cc1ccc2nc(N/N=C/c3sccc3C)cc(C)c2c1", "values": [{"measurement": "EC50", "value": "> 200", "unit": "µM"}, {"measurement": "IC50", "value": 49, "unit": "µM"}]}, {"smiles": "Nc1nc2c(ncn2C2CC(CO)C(CO)C2)c(=O)[nH]1", "note": "(stereo unspecified)", "values": [{"measurement": "EC50", "value": "> 224", "unit": "µM"}, {"measurement": "IC50", "value": "> 224", "unit": "µM"}]}, {"smiles": "C/C(N=NS(=O)(=O)c1ccc(C)cc1)=C1\\C=CC=CN1O", "values": [{"measurement": "outcome", "value": "inactive"}]}, {"smiles": "CNC1=CC(=O)C2=C(C1=O)[C@H]1CC[C@]3(C)C(=O)CC[C@H]3[C@@H]1CC2", "values": [{"measurement": "EC50", "value": "> 200", "unit": "µM"}, {"measurement": "IC50", "value": 30.2, "unit": "µM"}]}, {"smiles": "CCC(C(=O)c1ccccc1)C(CCCC(=O)Nc1c(C)cccc1C)N=O", "note": "(stereo unspecified)", "values": [{"measurement": "EC50", "value": "> 661", "unit": "µM"}, {"measurement": "IC50", "value": 355, "unit": "µM"}]}, {"smiles": "O=C(COc1ccc(OCC(=O)N2C(=O)CC(=O)N(c3ccc(Cl)cc3)C2=S)cc1)N1C(=O)CC(=O)N(c2ccc(Cl)cc2)C1=S", "values": [{"measurement": "EC50", "value": "> 200", "unit": "µM"}, {"measurement": "IC50", "value": 42.7, "unit": "µM"}]}, {"smiles": "CCOC(=O)C(=O)Nc1c(CC)cccc1C(C)CC", "note": "(stereo unspecified)", "values": [{"measurement": "EC50", "value": "> 646", "unit": "µM"}, {"measurement": "IC50", "value": "> 646", "unit": "µM"}]}, {"smiles": "COC1(c2ccc(Cl)cc2)SC=C(C)n2c1noc2=O", "note": "(stereo unspecified)", "values": [{"measurement": "EC50", "value": "> 200", "unit": "µM"}, {"measurement": "IC50", "value": "> 200", "unit": "µM"}]}, {"smiles": "CC1=Nc2ccccc2/C1=C\\c1c(C)[nH]c2ccccc12", "values": [{"measurement": "EC50", "value": 0.0631, "unit": "µM"}, {"measurement": "IC50", "value": 11.5, "unit": "µM"}]}, {"smiles": "COc1ccc(/C=C/C(=O)C(C)(C)CN2CCCCC2)cc1", "values": [{"measurement": "EC50", "value": "> 933", "unit": "µM"}, {"measurement": "IC50", "value": 10.5, "unit": "µM"}]}, {"smiles": "COc1ccc(C)cc1C(=C=C=C=C(c1cc(C)ccc1OC)c1ccccc1OCc1ccccc1)c1ccccc1OCc1ccccc1", "values": [{"measurement": "EC50", "value": "> 44.7", "unit": "µM"}, {"measurement": "IC50", "value": 36.3, "unit": "µM"}]}, {"smiles": "COc1cc2c(c(O)c1OC)C(O)C1CCC(=O)N1C2c1ccc2c(c1)OCO2", "note": "(stereo unspecified)", "values": [{"measurement": "EC50", "value": "> 200", "unit": "µM"}, {"measurement": "IC50", "value": 135, "unit": "µM"}]}, {"smiles": "C=CC[P@]1(=O)O[C@H](c2ccccc2)[C@H](C)N1C", "values": [{"measurement": "outcome", "value": "inactive"}]}, {"smiles": "CO/C(N)=C(\\C#N)N=Cc1cccs1", "values": [{"measurement": "EC50", "value": "> 200", "unit": "µM"}, {"measurement": "IC50", "value": 117, "unit": "µM"}]}, {"smiles": "COCC1OC(N2C(=O)NC(=O)[C@@H]3C=C4CCCCC4=C[C@@H]32)C(OC)C1OC", "note": "(stereo partly specified)", "values": [{"measurement": "EC50", "value": "> 200", "unit": "µM"}, {"measurement": "IC50", "value": 105, "unit": "µM"}]}, {"smiles": "COc1ccc(-c2ccc(CC(=O)O)cc2)cc1OC", "values": [{"measurement": "EC50", "value": "> 36.3", "unit": "µM"}, {"measurement": "IC50", "value": "> 36.3", "unit": "µM"}]}, {"smiles": "N=C(N)c1ccc(NC(=O)c2ccc(C(=O)Nc3ccc(C(=N)N)cc3)c(N)c2)cc1", "values": [{"measurement": "EC50", "value": 53.7, "unit": "µM"}, {"measurement": "IC50", "value": "> 200", "unit": "µM"}]}]}
